Laboratory results: US20090221505A1, “COMPOSITIONS AND METHODS RELATED TO SYNCHRONOUS SELECTION OF HOMING PEPTIDES FOR MULTIPLE TISSUES BY IN VIVO PHAGE DISPLAY” (priority 2004, published 2009)
Entries after “also recorded” stand apart in the source; their conditions may differ. Where no end group is shown, it is not given here.

Experiments:
[1] = system: COS-1 cells transfected with PRLR; test: Phage binding to COS-1 cells transfected with PRLR (BRASIL); type: cell-based; conditions: for Binding of phage to PRLR-transfected COS-1 cells (in words) / Isolation by biopanning on cell-surface expressed PRLR: BRASIL; for Binding of phage to PRLR-transfected COS-1 cells (in words): FIG. 5A-5B; for Isolation by biopanning on cell-surface expressed PRLR: pancreas-homing phage pool (rounds 2 and 3), single round
Method: (§1) Phage-peptide binding to PRLR To identify peptides binding to PRLR, phage clones isolated from the pancreas in rounds 2 and 3 of the screening were individually amplified and pooled. For panning on immobilized PRLR, 10^9 TU of the mixed phage clones were incubated overnight at 4° C. with […] of purified recombinant rabbit PRLR (Protein Laboratories Rehovot, Israel), or BSA control, immobilized on plastic. Unbound phage were extensively washed off with PBS, and then the bound phage were recovered by infecting host K91 E. coli directly on the plate. For panning on cell surface-expressed PRLR, COS-1 cells (ATCC) were transiently transfected with pECE-PRLR as described (Wang et al, 1997) and subjected to biopanning with the amplified pancreas-isolated phage using the BRASIL protocol (Giordano et al, 2001). In each biopanning, bound phage were selected for tetracycline resistance, quantified by infecting host K91 E. coli and sequenced. […] Phage displaying forward (CRVASVLPC) (SEQ ID NO 30), reverse CPLVSAVRC(SEQ ID NO 34), and the alanine point mutants were titered in-parallel with insertless fd-tet phage and tested for binding to COS-1 cells transfected with PRLR by using the BRASIL method (Giordano et al, 2001). COS-1 cells not transfected with PRLR served as a negative control.

[2] = system: COS-1 cells transfected with PRLR; test: Immunofluorescence of phage binding and internalization into COS-1 cells transfected with PRLR; type: cell-based; conditions: 10^9 TU phage
Method: (§2) Immunolocalization Immunofluorescent detection of PRLR expression in COS-1 cells was performed by using anti-PRLR antibody MAI-610 (Affinity Bioreagents) diluted to 20 μg/ml and a secondary FITC-conjugated goat anti-mouse antibody F-0257 (Sigma) at 1 100 dilution. For validating phage binding and internalization into COS-1 cells transfected with PRLR, 10^9 TU of phage displaying PRLR-binding or mutant peptides were subjected to cell binding and internalization as described (Zurita et al, 2004). Immunodetection of cell-associated phage was performed with anti-fd antibody B-7786 (Sigma) at 1 500 dilution and a secondary Cy3-conjugated donkey anti-rabbit antibody 711-165-152 (Jackson) at 3 μg/ml. For phage-peptide immunolocalization in situ, 10^10 TU of iv-injected phage were let circulate for 5 min. Immunohistochemistry on formalin-fixed, paraffin-embedded mouse tissue sections was performed as described (Paqualini et al, 2001, Arap et al, 2002) by using anti-fd antibody B-7786 at 1 1,000 dilution and the LSAB+ peroxidase kit (DAKO)

Pancreas = test: Anti-phage immunohistochemistry after iv phage injection, pancreas; type: in vivo, mouse
Method: as §2

skeletal muscle = test: Anti-phage immunohistochemistry after iv phage injection, skeletal muscle; type: in vivo, mouse
Method: as §2

[3] = biological target: T1, purified recombinant rabbit PRLR (Oryctolagus cuniculus, UniProt P14787); test: Panning of pancreas-homing phage on immobilized PRLR (BSA control); type: binding; conditions: pancreas-homing phage pool (rounds 2 and 3), single round
T1 construct: purchased Protein Laboratories Rehovot, Israel
T1 sequence (P14787 25-234 limits assumed): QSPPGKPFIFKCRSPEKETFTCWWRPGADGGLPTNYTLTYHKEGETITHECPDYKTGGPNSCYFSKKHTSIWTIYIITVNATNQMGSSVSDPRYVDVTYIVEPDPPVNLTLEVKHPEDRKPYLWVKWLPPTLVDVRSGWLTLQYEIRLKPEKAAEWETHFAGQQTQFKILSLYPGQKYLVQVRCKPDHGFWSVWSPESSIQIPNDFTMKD
Method: as §1

[4] = biological target: PRLR (prolactin receptor) expressed on the surface of COS-1 cells transfected with pECE-PRLR; test: phage binding to prlR-transfected COS-1 cells
[5] = biological target: PRLR (prolactin receptor) expressed on the surface of COS-1 cells transfected with pECE-PRLR; test: phage binding to PRLR-transfected COS-1 cells, BRASIL

PRLR (prolactin receptor) expressed on the surface of COS-1 cells transfected with pECE-PRLR, sequence (P05710 20-610): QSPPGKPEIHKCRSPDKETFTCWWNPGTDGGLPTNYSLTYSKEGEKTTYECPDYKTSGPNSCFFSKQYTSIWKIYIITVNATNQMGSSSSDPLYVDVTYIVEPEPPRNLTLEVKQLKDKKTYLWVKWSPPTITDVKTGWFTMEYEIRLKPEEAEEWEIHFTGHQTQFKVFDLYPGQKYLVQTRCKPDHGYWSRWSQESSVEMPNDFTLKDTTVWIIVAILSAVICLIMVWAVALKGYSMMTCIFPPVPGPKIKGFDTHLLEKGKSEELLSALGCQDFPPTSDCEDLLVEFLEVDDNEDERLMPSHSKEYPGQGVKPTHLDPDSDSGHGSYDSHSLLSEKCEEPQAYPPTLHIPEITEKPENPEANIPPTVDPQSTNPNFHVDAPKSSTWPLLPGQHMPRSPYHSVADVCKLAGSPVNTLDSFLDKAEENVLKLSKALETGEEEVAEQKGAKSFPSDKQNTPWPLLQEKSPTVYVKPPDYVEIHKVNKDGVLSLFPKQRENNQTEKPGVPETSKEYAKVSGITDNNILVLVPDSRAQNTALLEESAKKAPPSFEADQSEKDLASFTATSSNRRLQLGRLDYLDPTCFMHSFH

Molecule: CPLVSAVRC
- Binding of phage to PRLR-transfected COS-1 cells (in words) [1]: did not significantly decrease its binding to PRLR
- Phage binding, internalization and co-localization with PRLR-expressing cells [2]: bound and internalized specifically by cells expressing PRLR

Molecule: CRVASVLPC [tested as phage clone]
- Binding of phage to PRLR-transfected COS-1 cells (in words) [1]: Specific binding
- Binding of phage to COS-1 cells transfected with prlR relative to background binding by controls ([1]; controls: muscle-homing phage or insertless phage): five
- Binding of phage to COS-1 cells transfected with PRLR relative to nonspecific binding to non-transfected COS-1 cells ([1]; negative control: non-transfected COS-1 cells, FIG. 5A): 9 fold
- Phage binding, internalization and co-localization with PRLR-expressing cells [2]: co-localized; also recorded: bound and internalized specifically by cells expressing PRLR
- Phage localization in pancreas (Pancreas): localized to pancreatic blood vessels and the islets of Langerhans; also recorded: to pancreatic blood vessels and the pancreatic islet cells
- Phage localization in skeletal muscle (skeletal muscle): but not to skeletal muscle

Molecule: CYAIGSFDC (phage-displayed) [control muscle-homing phage clone displaying …]
- Phage localization in pancreas (Pancreas): but not in the pancreas
- Phage localization in skeletal muscle (skeletal muscle): found predominantly in the vasculature of skeletal muscle; also recorded: found predominantly in the vasculature of the skeletal muscle

Molecule: LPTLSLN (not fully specified)
- Isolation by biopanning on in vitro immobilized PRLR [3]: isolated by biopanning on both in vitro immobilized and cell-surface expressed PRLR
- Isolation by biopanning on cell-surface expressed PRLR [1]: isolated by biopanning on both in vitro immobilized and cell-surface expressed PRLR

Molecule: QVHSSAY (not fully specified)
- Isolation by biopanning on in vitro immobilized PRLR [3]: isolated by biopanning on both in vitro immobilized and cell-surface expressed PRLR
- Isolation by biopanning on cell-surface expressed PRLR [1]: isolated by biopanning on both in vitro immobilized and cell-surface expressed PRLR

Molecule: SGATGRA (not fully specified)
- Isolation by biopanning on in vitro immobilized PRLR [3]: isolated by biopanning on both in vitro immobilized and cell-surface expressed PRLR
- Isolation by biopanning on cell-surface expressed PRLR [1]: isolated by biopanning on both in vitro immobilized and cell-surface expressed PRLR

Molecule: SGPTGRA (not fully specified)
- Isolation by biopanning on in vitro immobilized PRLR [3]: isolated by biopanning on both in vitro immobilized and cell-surface expressed PRLR
- Isolation by biopanning on cell-surface expressed PRLR [1]: isolated by biopanning on both in vitro immobilized and cell-surface expressed PRLR

Molecule: VFSDYKR (not fully specified)
- Isolation by biopanning on in vitro immobilized PRLR [3]: isolated by biopanning on both in vitro immobilized and cell-surface expressed PRLR
- Isolation by biopanning on cell-surface expressed PRLR [1]: isolated by biopanning on both in vitro immobilized and cell-surface expressed PRLR

B1: …-phage (phage displaying the … motif, SEQ ID NO 30) (peptide, part only; not given: phage coat protein, part only)
peptide, part: CRVASVLPC
modifications: not fully specified (bridges); cysteine pairing not given here; also: displayed on filamentous phage (fUSE5)
- fold binding over control phage (muscle-homing or insertless) [4]: 5 fold
- fold binding over non-transfected COS-1 cells [5]: 9 fold
